# Data as given in US11447467B2, “Compounds for the degradation of STK4 and treatment of hematologic malignancies” (DANA-FARBER CANCER INSTITUTE, INC., priority 2017, dated 2022).
# Assays:
# [1] = test system: Peripheral blood mononuclear cells (PBMCs) from healthy volunteer; assay: MTT cell growth assay, peripheral blood mononuclear cells; format: cell-based, human; conditions: PBMCs from healthy volunteer vs MM.1S cells, 48 h
# Protocol: (§1) Dexamethasone-sensitive MM.1S human MM cell line were kindly provided by Dr. Steven Rosen (Northwestern University, Chicago, Ill., United States). Creblon stable knockout MM.1S cells were established in our laboratory using lentiviral CRBN shRNA system. The cell lines were routinely tested for Mycoplasma, and genotyped with two different methods. Peripheral blood mononuclear cells were obtained from healthy volunteer by Ficoll-Paque centriguation. All MM cell lines and PBMCs were cultured in RPMI-1640 media (EuroClone, Pero, Italy) containing 10% fetal bovine serum (FBS, GIBCO, Life technologies, Carlsbad, Calif., United States), and a mix of penicillin and streptomycin to 1% from EuroClone (ECB3001).
# MM.1S and CRBN-knockout MM.1S cells were counted and diluted to a final concentration of 400,000 cells/mL. The cell were plated in 96-well plates and mixed with an equal volume of culture media containing DMSO or increasing concentration of a compound of the present application diluted in DMSO (the final DMSO concentration is equal between all tested samples), using a STARlet Robot (Hamiltonrobotics, Reno, Nev., United States). Cells with increasing concentration of compound of the present application and DMSO were harvested at different time points (24 hrs to 72 hrs). […] Absorbance was read at 570/630 nm.
# [2] = test system: MM.1S cells resistant to lenalidomide (Len-R #1); assay: MTT cell growth assay, lenalidomide-resistant MM.1S cells; format: cell-based, human; conditions: Len-R #1 MM.1S cells, 0.2-20 μM, 72 h
# [3] = test system: CRBN-knockout MM.1S cells; assay: MTT cell growth assay, CRBN-knockout MM.1S cells; format: cell-based, human; conditions: for cytotoxicity in CRBN-knockout cells (FIG. 11): 0.2-20 μM, 72 h; for cytotoxicity in CRBN-knockout cells (FIG. 5): parental or CRBN-knockout MM.1S cells, 24 h, 0.1-10 μM, MTT
# Protocol: as §1
# (§2) MM.1S and CRBN-knockout MM.1S cells were counted and diluted to a final concentration of 400,000 cells/mL. The cell were plated in 96-well plates and mixed with an equal volume of culture media containing DMSO or increasing concentration of a compound of the present application diluted in DMSO (the final DMSO concentration is equal between all tested samples), using a STARlet Robot (Hamiltonrobotics, Reno, Nev., United States). Cells with increasing concentration of compound of the present application and DMSO were harvested at different time points (24 hrs to 72 hrs). For assessment of celll growth MTT assay, the 3-[4,5 dimethylthiazol-2-yl]-2,5 diphenyltetrazolium bromide-MTT (Sigma-Aldrich, St. Louis, Mo., Unites States) colorimetric assay was used. At the various time points (24-72 hrs), 10 μL of 5 mg/mL MTT were added to cells. After 4 hrs incubation at 37° C., medium was discarded and 100 μL MTT stop solution (Isopropanol with 1 N HCl) was used to dissolve MTT metabolic products. Absorbance was read at 570/630 nm.
# [4] = target: T1, STK4 (Homo sapiens, UniProt Q13043); assay: Western blotting of STK4 in whole cell lysates of MM.1S cells (parental or CRBN-knockout); format: cell-based; conditions: for degradation of STK4 in cereblon-knockout cells (FIG. 8): CRBN-K.O. vs parental MM.1S cells; for downregulation of STK4 in MM.1S cells (FIG. 7): 0.6-20 μM; for degradation of STK4 in the presence of MLN4924 (FIG. 9): compound 10 μM, NEDD8 inhibitor MLN4924 1 μM; for downregulation of STK4 over time (FIG. 3B): 10 μM; for downregulation of STK4 in MM.1S cells (FIG. 1): immunoblotting anti-STK4/anti-GAPDH
# T1 construct: endogenous in cells; host or cells: MM.1S and CRBN-knockout MM.1S cells
# T1 sequence (Q13043 1-487): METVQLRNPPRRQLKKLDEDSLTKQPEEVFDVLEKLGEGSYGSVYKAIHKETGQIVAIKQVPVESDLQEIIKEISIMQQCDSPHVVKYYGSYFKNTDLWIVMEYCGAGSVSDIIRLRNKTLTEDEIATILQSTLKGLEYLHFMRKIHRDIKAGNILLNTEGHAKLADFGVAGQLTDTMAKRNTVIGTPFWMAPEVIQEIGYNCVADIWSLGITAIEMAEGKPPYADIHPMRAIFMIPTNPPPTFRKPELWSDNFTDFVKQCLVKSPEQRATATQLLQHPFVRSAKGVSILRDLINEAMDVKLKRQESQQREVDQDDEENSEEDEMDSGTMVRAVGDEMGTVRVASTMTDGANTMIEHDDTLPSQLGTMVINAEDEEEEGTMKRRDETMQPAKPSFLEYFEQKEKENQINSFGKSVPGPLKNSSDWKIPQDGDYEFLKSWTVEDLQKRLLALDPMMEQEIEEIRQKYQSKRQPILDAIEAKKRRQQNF
# Source text: MM.1S, KMS20 and H929 cells are counted, diluted and plated. Cells are then […] with DMSO or different concentration of a compound of the present application for 6 hrs, 24 hrs or 48 hrs. MM cells are then collected and centrifuged at RT and the pellets are re-suspended in lysis buffer. Cell lysates are subjected to sodium dodecyl sulfate-polyacrylamide gel electrophoresis SDS-PAGE, transferred to nitrocellulose membranes, and immunoblotted with different antibodies.
# MM.1S and CRBN knockout MM.1S cells were counted, diluted and plated in six-well plates to a final concentration of 500,000 cells/well. Cells were then harvested with DMSO or different concentration of a compound of the present application (4 h-24 h). MM cells were then collected and centrifuged for 5 min, 1300 rpm at RT. The pellets were re-suspended in cell lysis buffer (20 mM Tris-HCl (pH 7.5), 150 mM NaCl, 1 mM Na2EDTA, 1 mM EGTA, 1% Triton, 2.5 mM sodium pyrophosphate, 1 mM beta-glycerophosphate, 1 mM Na3VO4, 1 μg/ml leupeptin. Cell lysates were subjected to sodium dodecyl sulfate-polyacrylamide gel electrophoresis SDS-PAGE, transferred to nitrocellulose membranes, and immunoblotted with different antibodies: MST1 (STK4) (#14946), K48-linkage Specific Polyubiquitin (#8081) and GAPDH (#5174) from Cell Signaling, Beverly, Mass., United States: IKZF1 (AF4984) (from R&D Systems, Mineapolis, Minn., United States). All antibodies were diluted 1:1000, except for GAPDH antibody (1:4,000 dilution).
# [5] = test system: MM.1S cells; assay: MTT cell growth assay, MM.1S cells; format: cell-based, human; conditions: 72 h; for MM cell growth inhibition (FIG. 10): 0.2-20 μM; for potency in inhibiting MM cell growth as compared to lenalidomide (FIG. 15): comparator lenalidomide (Len)
# Protocol: as §1, §2
# [6] = MM.1S cells, 24 h, indicated concentrations
SMILES,degradation of STK4 in cereblon-knockout cells (FIG. 8) ([4]; 24 h),"downregulation of STK4 in MM.1S cells (FIG. 7) ([4]; MM.1S cells, 24 h)","degradation of STK4 in the presence of MLN4924 (FIG. 9) ([4]; MM.1S cells, 24 h)","downregulation of STK4 in MM.1S cells (FIG. 1) [4, 6]","downregulation of STK4 in MM.1S cells (FIG. 2) ([4]; MM.1S cells, 24 h, 0.15-5 μM, Western blotting)","degradation of STK4 in cereblon-knockout cells (FIG. 4) ([4]; cereblon (CRBN)-knockout vs parental MM.1S cells, 24 h, indicated concentrations)",cytotoxicity to peripheral blood mononuclear cells (FIG. 13A/13B) [1],cytotoxicity in acquired lenalidomide-resistant cells (FIG. 12B) [2],cytotoxicity in CRBN-knockout cells (FIG. 11) [3],MM cell growth inhibition (FIG. 10) [5],potency in inhibiting MM cell growth as compared to lenalidomide (FIG. 15) [5],cytotoxicity in CRBN-knockout cells (FIG. 5) [3],"downregulation of STK4 over time (FIG. 3B) ([4]; MM.1S cells, 4-24 h)","downregulation of STK4 over time (FIG. 3A) ([4]; MM.1S cells, 2.5 μM, 4-24 h)"
Nc1ncc(-c2ccc(S(=O)(=O)Nc3cccc(NC(=O)CCOCCOCCOCCOCCOCCOc4cccc5c4C(=O)N(C4CCC(=O)NC4=O)C5=O)c3)cc2F)cc1-c1ccc2c(c1)CCNC2=O (centres unmarked) [Compound I-17],,,,,,,,,,,,,downregulation of STK4 by compounds of the application in a time-dependent fashion,
"Nc1ncc(-c2ccc(S(=O)(=O)N(CCCNC(=O)CCOCCOCCOCCOCCOCCNc3cccc4c3C(=O)N(C3CCC(=O)NC3=O)C4=O)C3CC3)cc2F)cc1-c1ccc2c(c1)CCNC2=O (centres unmarked) [Compound I-19, N-(3-((4-(6-amino-5-(1-oxo-1,2,3,4-tetrahydroisoquinolin-6-yl)pyridin-3-yl)-N-cyclopropyl-3-fluorophenyl)sulfonamido)propyl)-1-((2-(2,6-dioxopiperidin-3-yl)-1,3-dioxoisoindolin-4-yl)amino)-3,6,9,12,15-pentaoxaoctadecan-18-amide]",,,,dose dependent downregulation of STK4,dose dependent downregulation of STK4,absence of degradation of STK4,,,,,,decrease in cytotoxicity,,downregulation of STK4 by compounds of the application in a time-dependent fashion

# Now from value to compound, other results behind:
degradation of STK4 in cereblon-knockout cells (FIG. 8) ([4]; 24 h),"downregulation of STK4 in MM.1S cells (FIG. 7) ([4]; MM.1S cells, 24 h)","degradation of STK4 in the presence of MLN4924 (FIG. 9) ([4]; MM.1S cells, 24 h)","downregulation of STK4 in MM.1S cells (FIG. 1) [4, 6]","downregulation of STK4 in MM.1S cells (FIG. 2) ([4]; MM.1S cells, 24 h, 0.15-5 μM, Western blotting)","degradation of STK4 in cereblon-knockout cells (FIG. 4) ([4]; cereblon (CRBN)-knockout vs parental MM.1S cells, 24 h, indicated concentrations)",SMILES,cytotoxicity to peripheral blood mononuclear cells (FIG. 13A/13B) [1],cytotoxicity in acquired lenalidomide-resistant cells (FIG. 12B) [2],cytotoxicity in CRBN-knockout cells (FIG. 11) [3],MM cell growth inhibition (FIG. 10) [5],potency in inhibiting MM cell growth as compared to lenalidomide (FIG. 15) [5],cytotoxicity in CRBN-knockout cells (FIG. 5) [3],"downregulation of STK4 over time (FIG. 3B) ([4]; MM.1S cells, 4-24 h)","downregulation of STK4 over time (FIG. 3A) ([4]; MM.1S cells, 2.5 μM, 4-24 h)"
absence of degradation of STK4,dose dependent downregulation of STK4,absence of degradation of STK4,,,,"Nc1ncc(-c2ccc(S(=O)(=O)Nc3ccc(NC(=O)CCOCCOCCOCCOCCOCCNc4cccc5c4C(=O)N(C4CCC(=O)NC4=O)C5=O)cc3)cc2F)cc1-c1ccc2c(c1)CCNC2=O (centres unmarked) [Compound I-7, N-(4-((4-(6-amino-5-(1-oxo-1,2,3,4-tetrahydroisoquinolin-6-yl)pyridin-3-yl)-3-fluorophenyl)sulfonamido)phenyl)-1-((2-(2,6-dioxopiperidin-3-yl)-1,3-dioxoisoindolin-4-yl)amino)-3,6,9,12,15-pentaoxaoctadecan-18-amide]",absence of cytotoxic,decrease in cytotoxicity,decrease in cytotoxicity,potent MM cell growth inhibition,greater potency,,,
absence of degradation of STK4,dose dependent downregulation of STK4,absence of degradation of STK4,dose dependent downregulation of STK4,,,Nc1ncc(-c2ccc(S(=O)(=O)Nc3cccc(NC(=O)CCOCCOCCOCCOCCOCCNc4cccc5c4C(=O)N(C4CCC(=O)NC4=O)C5=O)c3)cc2F)cc1-c1ccc2c(c1)CCNC2=O (centres unmarked) [Compound I-10],absence of cytotoxic,decrease in cytotoxicity,decrease in cytotoxicity,potent MM cell growth inhibition,greater potency,decrease in cytotoxicity,downregulation of STK4 by compounds of the application in a time-dependent fashion,
,,,dose dependent downregulation of STK4,,,"Nc1ncc(-c2ccc(S(=O)(=O)NC3CCCN(C(=O)CCOCCOCCOCCOCCOCCNc4cccc5c4C(=O)N(C4CCC(=O)NC4=O)C5=O)C3)cc2F)cc1-c1ccc2c(c1)CCNC2=O (centres unmarked) [Compound I-20, 4-(6-amino-5-(1-oxo-1,2,3,4-tetrahydroisoquinolin-1-yl)pyridin-3-yl)-N-(1-(1-((2-(2,6-dioxopiperidin-3-yl)-1,3-dioxoisoindolin-4-yl)amino)-3,6,9,12,15-pentaoxaoctadecan-18-oyl)piperidin-3-yl)-3-fluorobenzenesulfonamide]",,,,,,,,
